# According to BindingDB's records for doi:10.1016/0960-894X(95)00583-F (1996):
# Test: Compound was evaluated for binding affinity against [3H]- Cl-DPDPE labeled Opioid receptor delta 1 in guinea-pig brain homogenate.
row,Compound,Ki [nM]
1,"O=C(/C=C/c1ccc(Cl)cc1)N[C@@H]1CC[C@@]2(O)[C@H]3Cc4ccc(O)c5c4C2(CCN3CC2CC2)[C@H]1O5 [1N-[4-cyclopropylmethyl-10,17-dihydroxy-(5R,13R,14R,17S)-12-oxa-4-azapentacyclo[9.6.1.01,13.05,17.07,18]octadeca-7(18),8,10-trien-14-yl]-3-(4-chlorophenyl)-(E)-2-propenamide]",5
2,COC(=O)/C=C/C(=O)N[C@@H]1CC[C@@]2(O)[C@H]3Cc4ccc(O)c5c4[C@@]2(CCN3CC2CC2)[C@H]1O5 [Beta-Funeltrexamine],22
3,"O=C(/C=C/c1ccc([N+](=O)[O-])cc1)N[C@@H]1CC[C@@]2(O)[C@H]3Cc4ccc(O)c5c4C2(CCN3CC2CC2)[C@H]1O5 [1N-[4-cyclopropylmethyl-10,17-dihydroxy-(5R,13R,14R,17S)-12-oxa-4-azapentacyclo[9.6.1.01,13.05,17.07,18]octadeca-7(18),8,10-trien-14-yl]-3-(4-nitrophenyl)-(E)-2-propenamide]",5.1
4,"O=C(/C=C/c1ccccc1)N[C@@H]1CC[C@@]2(O)[C@H]3Cc4ccc(O)c5c4[C@@]2(CCN3CC2CC2)[C@H]1O5 [17-Cyclopropylmethyl-3,14beta-dihydroxy-4,5alpha-epoxy-6beta-(cinnamoylamino)morphinan]",3.1
5,"Cc1ccc(/C=C/C(=O)N[C@@H]2CC[C@@]3(O)[C@H]4Cc5ccc(O)c6c5C3(CCN4CC3CC3)[C@H]2O6)cc1 [1N-[4-cyclopropylmethyl-10,17-dihydroxy-(5R,13R,14R,17S)-12-oxa-4-azapentacyclo[9.6.1.01,13.05,17.07,18]octadeca-7(18),8,10-trien-14-yl]-3-(4-methylphenyl)-(E)-2-propenamide]",9.6
